Reference: patent EP3227262B1, “SULFIDE ALKYL AND PYRIDYL REVERSE SULFONAMIDE COMPOUNDS FOR HBV TREATMENT” (Novira Therapeutics Inc., priority 2014, dated 2016)

Key:
[1] = test system: HBV; assay: Inhibition of HBV replication dot-blot assay in HBV-producing hepatoma cell line; format: cell-based; settings: Hepatitis B virus, 144 h; activity in Dot-Blot assay; HepG2-2.2.15 cells; reduction in HBV DNA levels, six days
Outline: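 HepG2-2.2.15 confluent monolayers were exposed to a compound dilution series for six days, with medium and compound renewed at day 3. HBV DNA in supernatant/lysate was quantified by dot-blot hybridization, and EC50 was derived from dose-response reduction in HBV DNA.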

[2] = test system: HBV; assay: HBV replication inhibition assay (encapsidated HBV DNA in supernatant, bDNA QuantiGene); format: cell-based; settings: Hepatitis B virus, 144 h, HepG2.2.15 cells, supernatant at day 6, read-out: Extra HBV DNA

| SMILES | EC50 [1] | EC50 [2] |
| --- | --- | --- |
| O=C(Nc1ccc(F)c(Cl)c1)c1ccc(F)c(SCC2(CCO)CC2)c1 [Compound 32, N-(3-Chloro-4-fluorophenyl)-4-fluoro-3-(((1-(2-hydroxyethyl)cyclopropyl)methyl)thio)benzamide] | < 10 µM | 0.41 µM |
| O=C(Nc1cc(F)c(F)c(F)c1)c1ccc(F)c(SCC2(CCO)CC2)c1 [Compound 33, 4-Fluoro-3-(((1-(2-hydroxyethyl)cyclopropyl)methyl)thio)-N-(3,4,5-trifluorophenyl)benzamide] | < 10 µM | 0.62 µM |
| O=C(Nc1ccc(F)c(Cl)c1)c1cccc(SC2CCCCC2)c1 [Compound 35, N-(3-Chloro-4-fluorophenyl)-3-(cyclohexylthio)benzamide] | < 10 µM | 1.21 µM |
| O=C(Nc1ccc(F)c(Cl)c1)c1cccc(SCCO)c1 [Compound 36, N-(3-Chloro-4-fluorophenyl)-3-((2-hydroxyethyl)thio)benzamide] | < 10 µM | 1.34 µM |
| O=C(Nc1ccc(F)c(Cl)c1)c1cccc(SC2CCCC2)c1 [Compound 37, N-(3-Chloro-4-fluorophenyl)-3-(cyclopentylthio)benzamide] | < 10 µM | 1.07 µM |
| CS(=O)(=O)NC(=O)[C@H]1CC[C@@H](Sc2cc(C(=O)Nc3cc(F)c(F)c(F)c3)ccc2F)CC1 [Compound 100, 4-Fluoro-3-(((1S,4S)-4-((methylsulfonyl)carbamoyl)cyclohexyl)thio)-N-(3,4,5-trifluorophenyl)benzamide] | < 10 µM | 1.7 µM |
| O=C(Nc1ccc(F)c(Cl)c1)c1cccc(NS(=O)(=O)C2CC2)n1 [Compound 123, N-(3-Chloro-4-fluorophenyl)-6-(cyclopropanesulfonamido)picolinamide] | < 10 µM | 3 µM |
| O=C(Nc1ccc(F)c(Cl)c1)c1ccnc(NS(=O)(=O)C2CC2)c1 [Compound 124, N-(3-Chloro-4-fluorophenyl)-2-(cyclopropanesulfonamido)isonicotinamide] | < 10 µM | 0.1 µM |
| O=C(Nc1ccc(F)c(Cl)c1)c1cncc(NS(=O)(=O)C2CC2)c1 [Compound 125, N-(3-Chloro-4-fluorophenyl)-5-(cyclopropanesulfonamido)nicotinamide] | < 10 µM | 2.1 µM |
| CCc1ccc(CS(=O)(=O)Nc2cc(C(=O)Nc3ccc(F)c(Cl)c3)ccn2)cc1 [Compound 180, N-(3-Chloro-4-fluorophenyl)-2-((4-ethylphenyl)methylsulfonamido)isonicotinamide] | < 10 µM | 0.3 µM |
| CCc1ccc(CS(=O)(=O)Nc2cc(C(=O)Nc3ccc(F)c(F)c3)ccn2)cc1 [Compound 181, N-(3,4-Difluorophenyl)-2-((4-ethylphenyl)methylsulfonamido)isonicotinamide] | < 10 µM | 0.7 µM |
